Data: ChEMBL document CHEMBL3621042, “Design, synthesis of novel tryptophan derivatives for antiplatelet aggregation activity based on tripeptide pENW (pGlu-Asn-Trp)” (Eur J Med Chem, 2015)
Calls of active or inactive are those of the source. The calls are words filed in the database; no cut-off is given here. Square brackets hold non-standard residues; d marks the D form. Peptide text beside a SMILES is read from it. pGlu = O=C1CC[C@@H](C(=O)O)N1

How the values were obtained:
[1] = molecular target: T1, Integrin alpha-IIb/beta-3 (Oryctolagus cuniculus) (UniProt Q9TUN4+Q9TUN3); experiment: Antagonist activity at GP2b/3a receptor in New Zealand rabbit platelet-rich plasma assessed as inhibition of ADP-induced platelet aggregation at 500 uM preincubated for 1 min followed by addition of ADP by aggregometer
[2] = molecular target: T1, Integrin alpha-IIb/beta-3 (Oryctolagus cuniculus); experiment: Antagonist activity at GP2b/3a receptor in New Zealand rabbit platelet-rich plasma assessed as inhibition of ADP-induced platelet aggregation at 100 uM preincubated for 1 min followed by addition of ADP by aggregometer
[3] = tested on: Rattus norvegicus; experiment: Antithrombotic activity in Sprague-Dawley rat arteriovenous shunt thrombosis model assessed as wet/dry weight reduction of thrombus at 1 mg/kg, iv incubated for 30 mins prior to testing; assay type: functional
[4] = tested on: Mus musculus; experiment: Toxicity in ICR mouse assessed as bleeding time at 1 mg/kg incubated for 30 mins prior to testing by tail transection method; assay type: organism-based; details: in vivo, 0.5 h
[5] = molecular target: Integrin alpha-IIb/beta-3 (Homo sapiens, UniProt P05106+P08514); experiment: Antagonist activity at GP2b/3a receptor (unknown origin) assessed as inhibition of interaction with fibrinogen after 2 hrs by ELISA; assay type: protein-complex assay
[6] = tested on: Mus musculus; experiment: Toxicity in ICR mouse assessed as bleeding time at 3 mg/kg incubated for 30 mins prior to testing by tail transection method; assay type: organism-based; details: in vivo, 0.5 h
[7] = tested on: Rattus norvegicus; experiment: Antithrombotic activity in Sprague-Dawley rat arteriovenous shunt thrombosis model assessed as wet/dry weight reduction of thrombus at 3 mg/kg, iv incubated for 30 mins prior to testing; assay type: functional; parameters: scale not given: the % may be the effect or the level left
[8] = tested on: Rattus norvegicus; experiment: Antithrombotic activity in iv dosed Sprague-Dawley rat arteriovenous shunt thrombosis model assessed as wet/dry weight reduction of thrombus incubated for 30 mins prior to testing; assay type: functional, organism-based
[9] = tested on: Mus musculus; experiment: Toxicity in ICR mouse assessed as bleeding time at 0.3 mg/kg incubated for 30 mins prior to testing by tail transection method; assay type: organism-based; details: in vivo, 0.5 h
[10] = molecular target: T1, Integrin alpha-IIb/beta-3 (Oryctolagus cuniculus); details: New Zealand, Plasma, 1 to 1000 uM
Description: Antagonist activity at GP2b/3a receptor in New Zealand rabbit platelet-rich plasma assessed as inhibition of ADP-induced platelet aggregation at 1 to 1000 uM preincubated for 1 min followed by addition of ADP by aggregometer

Integrin alpha-IIb/beta-3, sequence (P05106 27-788 limits assumed): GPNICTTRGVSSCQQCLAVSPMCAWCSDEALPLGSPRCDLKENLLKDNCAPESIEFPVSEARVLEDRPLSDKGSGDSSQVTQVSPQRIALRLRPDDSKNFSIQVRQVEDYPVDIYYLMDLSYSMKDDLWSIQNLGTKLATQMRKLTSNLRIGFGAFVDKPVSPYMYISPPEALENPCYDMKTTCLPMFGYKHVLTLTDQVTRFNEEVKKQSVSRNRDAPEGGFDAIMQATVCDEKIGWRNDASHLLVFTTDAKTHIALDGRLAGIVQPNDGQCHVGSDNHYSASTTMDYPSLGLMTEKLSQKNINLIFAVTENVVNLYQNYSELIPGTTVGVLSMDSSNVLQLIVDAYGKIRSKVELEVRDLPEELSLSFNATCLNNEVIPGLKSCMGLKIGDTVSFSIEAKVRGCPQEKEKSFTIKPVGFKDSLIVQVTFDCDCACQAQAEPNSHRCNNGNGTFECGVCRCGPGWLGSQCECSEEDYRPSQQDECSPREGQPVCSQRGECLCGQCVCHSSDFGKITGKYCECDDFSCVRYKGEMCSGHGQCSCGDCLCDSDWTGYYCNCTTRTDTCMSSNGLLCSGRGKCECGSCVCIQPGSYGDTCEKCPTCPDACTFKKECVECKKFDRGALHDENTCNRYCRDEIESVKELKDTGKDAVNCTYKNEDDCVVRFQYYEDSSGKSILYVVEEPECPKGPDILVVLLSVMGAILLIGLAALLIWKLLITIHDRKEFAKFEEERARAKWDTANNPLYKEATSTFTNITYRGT
Integrin alpha-IIb/beta-3, sequence (P08514 32-887 limits assumed): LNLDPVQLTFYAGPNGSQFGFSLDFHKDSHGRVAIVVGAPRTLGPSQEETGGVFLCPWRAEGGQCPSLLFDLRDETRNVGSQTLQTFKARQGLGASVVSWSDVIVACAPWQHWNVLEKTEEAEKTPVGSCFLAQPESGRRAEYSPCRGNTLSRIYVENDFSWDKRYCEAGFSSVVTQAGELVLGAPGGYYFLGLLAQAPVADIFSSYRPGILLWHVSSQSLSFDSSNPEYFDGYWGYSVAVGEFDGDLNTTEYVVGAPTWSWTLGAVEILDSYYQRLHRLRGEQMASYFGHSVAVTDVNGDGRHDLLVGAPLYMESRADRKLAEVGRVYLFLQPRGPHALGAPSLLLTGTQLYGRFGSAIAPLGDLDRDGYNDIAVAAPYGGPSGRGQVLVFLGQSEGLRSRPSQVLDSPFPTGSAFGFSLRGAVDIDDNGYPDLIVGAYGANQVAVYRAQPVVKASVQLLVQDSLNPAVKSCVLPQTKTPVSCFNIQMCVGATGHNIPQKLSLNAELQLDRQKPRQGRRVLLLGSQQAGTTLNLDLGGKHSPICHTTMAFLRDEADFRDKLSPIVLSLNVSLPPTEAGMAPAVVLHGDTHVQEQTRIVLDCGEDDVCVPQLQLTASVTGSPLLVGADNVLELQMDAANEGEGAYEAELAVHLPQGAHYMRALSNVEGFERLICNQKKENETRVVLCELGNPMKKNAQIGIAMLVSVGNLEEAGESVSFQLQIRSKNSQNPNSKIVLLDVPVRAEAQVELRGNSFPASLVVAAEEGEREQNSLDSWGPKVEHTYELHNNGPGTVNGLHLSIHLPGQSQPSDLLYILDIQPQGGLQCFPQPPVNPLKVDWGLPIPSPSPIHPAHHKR
Integrin alpha-IIb/beta-3, sequence (P08514 891-1039 limits assumed): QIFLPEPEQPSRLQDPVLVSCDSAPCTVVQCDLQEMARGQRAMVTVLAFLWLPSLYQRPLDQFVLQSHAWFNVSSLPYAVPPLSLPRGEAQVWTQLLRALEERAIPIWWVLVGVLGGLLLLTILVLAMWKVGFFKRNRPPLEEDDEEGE

| SMILES | inhibition [1] | inhibition [2] | other results |
| --- | --- | --- | --- |
| CC(=O)N[C@@H](CC(N)=O)C(=O)N[C@@H](Cc1c[nH]c2ccc(OCCCC3CCNCC3)cc12)C(=O)O | 51.4% |  |  |
| CCCCS(=O)(=O)N[C@@H](Cc1c[nH]c2ccc(OCCCN3CCNCC3)cc12)C(=O)O | 88.9% |  |  |
| O=C(N[C@@H](Cc1c[nH]c2ccc(OCCCCC3CCNCC3)cc12)C(=O)O)c1cc(Cl)cc(Cl)c1 |  | 62.7% |  |
| O=C(N[C@@H](Cc1c[nH]c2ccc(OCCCN3CCNCC3)cc12)C(=O)O)c1ccccc1 | 82.4% |  |  |
| O=C(O)[C@H](Cc1c[nH]c2ccc(OCCCN3CCNCC3)cc12)NS(=O)(=O)c1ccccc1 | 55.3% |  |  |
| NC(=O)C[C@H](NC(=O)[C@@H]1CCC(=O)N1)C(=O)N[C@@H](Cc1c[nH]c2ccccc12)C(=O)O ([pGlu]-Asn-Trp-OH) | 38.7% | 21.4% | Activity [3]: inactive; Activity [4]: Non-toxic; IC50 [5]: 12.5 µM |
| O=C(O)[C@H](Cc1c[nH]c2ccc(OCCCC3CCNCC3)cc12)NS(=O)(=O)c1ccccc1 | 94.5% |  |  |
| O=C(N[C@@H](Cc1c[nH]c2ccc(OCCCCC3CCNCC3)cc12)C(=O)O)c1ccccc1 | 96.2% | 27.9% |  |
| CCCC(=O)N[C@@H](Cc1c[nH]c2ccc(OCCC3CCNCC3)cc12)C(=O)O | 29.5% |  |  |
| CCCCS(=O)(=O)N[C@@H](Cc1c[nH]c2ccc(OCCCCN3CCNCC3)cc12)C(=O)O | 61.2% |  |  |
| CCCC(=O)N[C@@H](Cc1c[nH]c2ccc(OCCCCC3CCNCC3)cc12)C(=O)O | 53.3% |  |  |
| CCCCS(=O)(=O)N[C@@H](Cc1c[nH]c2ccc(OCCCCC3CCNCC3)cc12)C(=O)O | 52.4% |  |  |
| O=C(N[C@@H](Cc1c[nH]c2ccc(OCCCCC3CCNCC3)cc12)C(=O)O)c1ccc(F)cc1 |  | 54.9% |  |
| COc1ccc(S(=O)(=O)N[C@@H](Cc2c[nH]c3ccc(OCCCCC4CCNCC4)cc23)C(=O)O)cc1 |  | 39.3% |  |
| O=C(N[C@@H](Cc1c[nH]c2ccc(OCCCCN3CCNCC3)cc12)C(=O)O)c1ccccc1 | 83.3% |  |  |
| CCCC(=O)N[C@@H](Cc1c[nH]c2ccc(OCCCC3CCNCC3)cc12)C(=O)O | 71.2% |  |  |
| O=C(O)[C@H](Cc1c[nH]c2ccc(OCCCCC3CCNCC3)cc12)NS(=O)(=O)c1ccc(F)cc1 |  | 57.1% |  |

| SMILES | inhibition [1] | inhibition [2] | other results |
| --- | --- | --- | --- |
| O=C(O)[C@H](Cc1c[nH]c2ccc(OCCCCC3CCNCC3)cc12)NS(=O)(=O)c1ccc([N+](=O)[O-])cc1 |  | 45.3% |  |
| O=C(O)[C@H](Cc1c[nH]c2ccc(OCCCCN3CCNCC3)cc12)NS(=O)(=O)c1ccccc1 | 57.5% |  |  |
| COc1ccc(C(=O)N[C@@H](Cc2c[nH]c3ccc(OCCCCC4CCNCC4)cc23)C(=O)O)cc1 |  | 38.3% |  |
| CCCC(=O)N[C@@H](Cc1c[nH]c2ccc(OCCN3CCN(C)CC3)cc12)C(=O)O | 12.4% |  |  |
| CC(=O)N[C@@H](CC(N)=O)C(=O)N[C@@H](Cc1c[nH]c2ccccc12)C(=O)O (Ac-Asn-Trp-OH) | 35.2% |  |  |
| O=C(O)[C@H](Cc1c[nH]c2ccc(OCCCCC3CCNCC3)cc12)NS(=O)(=O)c1ccccc1 | 99.2% | 53.8% |  |
| O=C(N[C@@H](Cc1c[nH]c2ccc(OCCCCC3CCNCC3)cc12)C(=O)O)c1cccc(F)c1 |  | 53.4% |  |
| CCCCS(=O)(=O)N[C@@H](Cc1c[nH]c2ccc(OCCCC3CCNCC3)cc12)C(=O)O | 73.3% |  |  |
| O=C(O)[C@H](Cc1c[nH]c2ccc(OCCCCC3CCNCC3)cc12)NS(=O)(=O)c1ccc(Br)cc1 |  | 81.2% | Activity [3]: 26.6%; Time [6]: 13.5 min; Activity [7]: 41.7%; Time [4]: 11.8 min; Activity [8]: Dose-dependent effect; Time [9]: 10.6 min |
| O=C(N[C@@H](Cc1c[nH]c2ccc(OCCCC3CCNCC3)cc12)C(=O)O)c1ccccc1 | 92.7% |  |  |
| O=C(N[C@@H](Cc1c[nH]c2ccc(OCCCCC3CCNCC3)cc12)C(=O)O)c1ccc([N+](=O)[O-])cc1 |  | 43.5% |  |
| Cc1ccc(S(=O)(=O)N[C@@H](Cc2c[nH]c3ccc(OCCCCC4CCNCC4)cc23)C(=O)O)cc1 |  | 43.1% |  |
| CCCCS(=O)(=O)N[C@@H](Cc1ccc(OCCCCC2CCNCC2)cc1)C(=O)O [TIROFIBAN] |  |  | Activity [3]: Active; Time [4]: 17 min; inhibition [10]: Active |
| CCCC(=O)N[C@@H](Cc1c[nH]c2ccc(OCCCN3CCN(C)CC3)cc12)C(=O)O | 13.5% |  |  |
| CCCC(=O)N[C@@H](Cc1c[nH]c2ccc(OCCCCN3CCNCC3)cc12)C(=O)O | 79.1% |  |  |
| CCCC(=O)N[C@@H](Cc1c[nH]c2ccc(OCCN3CCNCC3)cc12)C(=O)O | 58.3% |  |  |
| CCCC(=O)N[C@@H](Cc1c[nH]c2ccc(OCCCN3CCNCC3)cc12)C(=O)O | 84.3% |  |  |
